Results reported in patent US7358249B2, “Heterocyclic compounds having inhibitory activity against HIV integrase” (Shionogi & Co., Ltd., priority 2002, dated 2008).
Values joined by “and” are separate entries in the source; they are usually repeats but may differ in a detail not shown here. Identical values can stand only once.

Row | SMILES | melting point
1 | CNC(=O)c1cc(C(=O)O)c2cc(Cc3ccc(F)cc3)cnc2c1O | 203 to 205 °C
2 | COC(=O)c1cc(C(N)=O)c2cc(Cc3ccc(F)cc3)cnc2c1OC(C)=O | 206 °C
3 | CC(=O)c1cc(C(=O)O)c2cc(Cc3ccc(F)cc3)cnc2c1O | 239 to 242 °C
4 | CCOCCNC(=O)c1cc(C(=O)OC)c(O)c2ncc(Cc3ccc(F)cc3)cc12 | 174 to 175 °C
5 | COC(=O)c1cc(N2CCCCC2)c2cc(Cc3ccc(F)cc3)cnc2c1O | 133 to 134 °C
6 | CNC(=S)Nc1cc(C(=O)OC)c(O)c2ncc(Cc3ccc(F)cc3)cc12 | 189 to 191 °C
7 | COCc1cc(C(=O)OC)c(O)c2ncc(Cc3ccc(F)cc3)cc12 | 110 to 111 °C
8 | COC(=O)c1cc(C(=O)N2CCCC(=O)C2)c2cc(Cc3ccc(F)cc3)cnc2c1O | 228 to 229 °C
9 | COC(=O)c1cc(Br)c2cc(Cc3ccc(F)cc3)cnc2c1O | 152 °C
10 | COC(=O)c1cc(NC(=O)c2ccc(Cl)cc2)c2cc(Cc3ccc(F)cc3)cnc2c1O | 253 to 254 °C
11 | CCC(=O)c1cc(C(=O)O)c2cc(Cc3ccc(F)cc3)cnc2c1O | 235 to 237 °C
12 | COC(=O)c1cc(C(=O)NCCOc2ccccc2)c2cc(Cc3ccc(F)cc3)cnc2c1O | 194 to 195 °C
13 | COC(=O)c1cc(C(=O)Nc2ccncn2)c2cc(Cc3ccc(F)cc3)cnc2c1O | 241 to 242 °C
14 | COC(=O)c1cc(C(=O)N2CCC(CO)CC2)c2cc(Cc3ccc(F)cc3)cnc2c1O | 161 to 162 °C
15 | CCOC(=O)c1cc(C(=O)O)c2cc(Cc3ccc(F)cc3)cnc2c1O | 238 to 239 °C
16 | COC(=O)c1cc(C(=O)NNC(=O)c2ccccn2)c2cc(Cc3ccc(F)cc3)cnc2c1O | 164 to 166 °C
17 | COC(=O)c1cc(CC(N)=O)c2cc(Cc3ccc(F)cc3)cnc2c1O | 209 to 211 °C
18 | COC(=O)c1nc(N2CCCC2=O)c2cc(Cc3ccc(F)cc3)cnc2c1O | 260 to 262 °C
19 | COCCCC(=O)c1cc(C(=O)O)c2cc(Cc3ccc(F)cc3)cnc2c1O | 226 to 228 °C
20 | COC(=O)c1cc(CCC(=O)O)c2cc(Cc3ccc(F)cc3)cnc2c1O | 254 to 256 °C
21 | NC(=O)c1cc(C(=O)O)c2cc(Cc3ccc(F)cc3)cnc2c1O | 212 to 213 °C
22 | COC(=O)c1nc(NS(=O)(=O)NC(=O)OC(C)C)c2cc(Cc3ccc(F)cc3)cnc2c1O | 170 to 172 °C
23 | COCCNC(=O)c1nc(C(=O)OC)c(O)c2ncc(Cc3ccc(F)cc3)cc12 | 145 to 146 °C

Row | SMILES | melting point
24 | COC(=O)C(=O)Nc1cc(C(=O)OC)c(O)c2ncc(Cc3ccc(F)cc3)cc12 | 168 to 170 °C
25 | COC(=O)c1cc(C(=O)NCC(=O)O)c2cc(Cc3ccc(F)cc3)cnc2c1O | 246 to 247 °C
26 | COCCOC(=O)c1cc(C(=O)O)c2cc(Cc3ccc(F)cc3)cnc2c1O | 234 to 235 °C (dec.)
27 | CCOC(=O)CNNC(=O)c1cc(C(=O)OC)c(O)c2ncc(Cc3ccc(F)cc3)cc12 | 184 to 185 °C
28 | COC(=O)c1cc(NC(=O)c2cc(C)on2)c2cc(Cc3ccc(F)cc3)cnc2c1O | 182 to 183 °C
29 | COC(=O)c1cc(C(=O)N2CCCOCC2)c2cc(Cc3ccc(F)cc3)cnc2c1O | 136 to 137 °C
30 | COC(=O)c1cc(C(=O)NCCOCCO)c2cc(Cc3ccc(F)cc3)cnc2c1O | 162 to 163 °C
31 | COC(=O)c1nc(NC(=O)Nc2ccccc2)c2cc(Cc3ccc(F)cc3)cnc2c1O | 254 to 255 °C
32 | COC(=O)c1cc(C(C)=O)c2cc(Cc3ccc(F)cc3)cnc2c1O | 166 to 168 °C
33 | COCCOC(=O)c1cc(C(=O)NOC)c(O)c2ncc(Cc3ccc(F)cc3)cc12 | 166 to 168 °C
34 | COC(=O)c1cc(C(=O)NCC(C)C)c2cc(Cc3ccc(F)cc3)cnc2c1O | 178 to 179 °C
35 | COC(=O)Cc1cc(C(=O)OC)c(O)c2ncc(Cc3ccc(F)cc3)cc12 | 168 to 169 °C
36 | COC(=O)c1cc(NC(=N)N)c2cc(Cc3ccc(F)cc3)cnc2c1O.Cl | 261.5 to 262.5 °C
37 | COC(=O)c1cc(C(=O)O)c2cc(Cc3ccc(F)cc3)cnc2c1O.NCCN | 164 °C
38 | CC(C)NC(=O)c1nc(NS(C)(=O)=O)c2cc(Cc3ccc(F)cc3)cnc2c1O | 167 to 168 °C
39 | COC(=O)c1cc(C(=O)NC2CCCC2)c2cc(Cc3ccc(F)cc3)cnc2c1O | 221 to 222 °C
40 | COC(=O)c1cc(C(=O)Nc2nccs2)c2cc(Cc3ccc(F)cc3)cnc2c1O | 258 to 259 °C
41 | COC(=O)c1cc(C(=O)NN(C)C)c2cc(Cc3ccc(F)cc3)cnc2c1O | 198 to 199 °C
42 | CCN(c1cc(C(=O)OC)c(O)c2ncc(Cc3ccc(F)cc3)cc12)S(C)(=O)=O | 149 to 150 °C
43 | COC(=O)c1cc(C(=O)N2COCC2(C)C)c2cc(Cc3ccc(F)cc3)cnc2c1O | 149 to 150 °C
44 | COC(=O)c1cc(C(=O)NCCN(C)C)c2cc(Cc3ccc(F)cc3)cnc2c1O | 115 to 116 °C
45 | COC(=O)c1cc(C#N)c2cc(Cc3ccc(F)cc3)cnc2c1O | 178 to 179 °C
46 | COC(=O)c1cc(C(=O)NN)c2cc(Cc3ccc(F)cc3)cnc2c1O | 156 to 157 °C

Row | SMILES | melting point
47 | CCCC(=O)c1cc(C(=O)O)c2cc(Cc3ccc(F)cc3)cnc2c1O | 232 to 234 °C
48 | COC(=O)c1cc(C(=O)NC(C)(C)CO)c2cc(Cc3ccc(F)cc3)cnc2c1O | 204 to 205 °C
49 | COC(=O)c1cc(N2CCNC2=O)c2cc(Cc3ccc(F)cc3)cnc2c1O | 248 to 250 °C
50 | CN(C)C(=O)c1cc(C(=O)O)c2cc(Cc3ccc(F)cc3)cnc2c1O | 214.5 to 215.5 °C
51 | CCC(=O)c1cc(N2CCCC2=O)c2cc(Cc3ccc(F)cc3)cnc2c1O | 202 to 203 °C
52 | COC(=O)c1cc(C(=O)NCCC2CCOCC2)c2cc(Cc3ccc(F)cc3)cnc2c1O | 198 to 199 °C
53 | COC(=O)c1nc(N2C(=O)COCC2=O)c2cc(Cc3ccc(F)cc3)cnc2c1O | 182 to 184 °C
54 | CC(=O)NNC(=O)c1cc(C(=O)OC2CCN(C(C)=O)CC2)c(O)c2ncc(Cc3ccc(F)cc3)cc12 | 129 to 131 °C
55 | COCCC(=O)Nc1cc(C(=O)OC2CCN(C(C)=O)CC2)c(O)c2ncc(Cc3ccc(F)cc3)cc12 | 89 to 90 °C
56 | CN(C)NC(=O)c1nc(C#CCNS(C)(=O)=O)c2cc(Cc3ccc(F)cc3)cnc2c1O | 229 to 230 °C (dec.)
57 | COC(=O)c1cc(NCC(C)C)c2cc(Cc3ccc(F)cc3)cnc2c1O | 249 to 251 °C
58 | COC(=O)c1cc(NC(=O)c2ccccc2Cl)c2cc(Cc3ccc(F)cc3)cnc2c1O | 230 to 232 °C
59 | COC(=O)c1cc(C(=O)NNC(=O)c2cccnc2)c2cc(Cc3ccc(F)cc3)cnc2c1O | 184 to 185 °C
60 | COC(=O)c1cc(C(=O)NC2CCCCC2)c2cc(Cc3ccc(F)cc3)cnc2c1O | 212 to 213 °C
61 | CN(C)NC(=O)c1nc(-c2ccc(CO)cc2)c2cc(Cc3ccc(F)cc3)cnc2c1O | 219 to 221 °C
62 | COC(=O)c1cc(C(=O)NCCN2CCOCC2)c2cc(Cc3ccc(F)cc3)cnc2c1O | 198 to 199 °C
63 | COC(=O)c1cc(C=CC(=O)O)c2cc(Cc3ccc(F)cc3)cnc2c1O | 235 to 237 °C
64 | COC(=O)c1cc(C(=O)OCc2ccccc2)c2cc(Cc3ccc(F)cc3)cnc2c1O | 131 to 133 °C
65 | COC(=O)CCc1cc(C(=O)OC)c(O)c2c1CC(Cc1ccc(F)cc1)CN2 (centres unmarked) | 140 to 141 °C
66 | COCCCCC(=O)c1cc(C(=O)O)c2cc(Cc3ccc(F)cc3)cnc2c1O | 216 to 218 °C
67 | COCCCC(=O)c1ncc2cc(Cc3ccc(F)cc3)cnc2c1O | 117 to 118 °C
68 | COC(=O)c1cc(C(=O)N2CCC(O)CC2)c2cc(Cc3ccc(F)cc3)cnc2c1O | 196 to 197 °C
69 | CNNC(=O)c1cc(C(=O)OC)c(O)c2ncc(Cc3ccc(F)cc3)cc12 | 188 to 189 °C

Row | SMILES | melting point
70 | COC(=O)c1cc(C(=O)NNCC(=O)N(C)C)c2cc(Cc3ccc(F)cc3)cnc2c1O | 170 to 172 °C
71 | COC(=O)c1cc(C(=O)NCCNC(C)=O)c2cc(Cc3ccc(F)cc3)cnc2c1O | 251 to 253 °C
72 | CCCCC(=O)c1cc(C(=O)O)c2cc(Cc3ccc(F)cc3)cnc2c1O | 227 to 229 °C
73 | COC(=O)c1cc(C(=O)NCCOC(C)C)c2cc(Cc3ccc(F)cc3)cnc2c1O | 175 to 176 °C
74 | COCCNC(=O)c1nc(NS(C)(=O)=O)c2cc(Cc3ccc(F)cc3)cnc2c1O | 241 to 242 °C
75 | COC(=O)c1cc(CC#N)c2cc(Cc3ccc(F)cc3)cnc2c1O | 173 to 175 °C
76 | O=C(NCc1ccc(F)cc1)c1c(O)c2ncc(Cc3ccccc3)cc2[nH]c1=O | > 300 °C
77 | CC(C)OC(=O)c1cc(C(=O)O)c2cc(Cc3ccc(F)cc3)cnc2c1O | 249 to 251 °C (dec.)
78 | CONC(=O)c1cc(C(=O)OC)c2cc(Cc3ccc(F)cc3)cnc2c1O | 186 to 188 °C
79 | COC(=O)c1cc(C(=O)N2CCSCC2)c2cc(Cc3ccc(F)cc3)cnc2c1O | 184 to 185 °C
80 | COC(=O)c1cc(C(=O)[O-])c2cc(Cc3ccc(F)cc3)cnc2c1O.[Na+] | > 208 °C
81 | COC(=O)c1cc(-c2ccccc2C(=O)O)c2cc(Cc3ccc(F)cc3)cnc2c1O | 250 to 252 °C
82 | COC(=O)c1nc(N2CCCCS2(=O)=O)c2cc(Cc3ccccc3)cnc2c1O | 183 to 185 °C and 186 °C
83 | CC(=O)N1CCC(OC(=O)c2nc(C#CCNS(C)(=O)=O)c3cc(Cc4ccc(F)cc4)cnc3c2O)CC1 | 192 to 193 °C
84 | CC(=O)N1CCC(OC(=O)c2cc(C(=O)O)c3cc(Cc4ccc(F)cc4)cnc3c2O)CC1 | 230 to 232 °C
85 | CCCOC(=O)c1cc(C(=O)O)c2cc(Cc3ccc(F)cc3)cnc2c1O | 249 to 251 °C (dec.)
86 | COC(=O)CNC(=O)c1cc(C(=O)OC)c(O)c2ncc(Cc3ccc(F)cc3)cc12 | 209 to 210 °C
87 | COC(=O)c1cc(C(=O)NNC(C)=O)c2cc(Cc3ccc(F)cc3)cnc2c1O | 208 to 209 °C
88 | COC(=O)c1cc(C(=O)N2CCC(C(N)=O)CC2)c2cc(Cc3ccc(F)cc3)cnc2c1O | 235 to 238 °C
89 | COC(=O)c1nc(C(=O)NS(=O)(=O)c2ccccc2)c2cc(Cc3ccc(F)cc3)cnc2c1O | 228 to 229 °C
